Measurements from patent US4958010A, “Epipodophyllotoxin glucoside lactam derivatives” (Bristol-Myers Company, priority 1989, dated 1990).
“And” between values parts separate entries of the source, which are not always exact repeats. Equal values may be shown once. Where a name gives a salt, the structure may show the parent alone.

Key:
[1] = system: P388 leukemia; test: antitumor activity against intravenously implanted P388 leukemia in BDF1 female mice; type: in vivo, murine (BDF1 female mice); conditions: 10^6 P388 cells i.v., 64 days
Description: Compound of Example 15 was evaluated against intravenously implanted P388 leukemia (10^6 cells) in BDF1 female mice. The test compound was administered intravenously at various dose levels to groups of six mice on days 5 and 8; the positive control, etoposide, was given intraperitoneally. The experiment lasted 64 days.

[2] = Cancer Chemoth. Rep., 1966, 50:565-571; cited from earlier work
[3] = system: HCT/VP35; test: in vitro cytotoxicity assay, HCT/VP35 human colon tumor resistant to etoposide; type: cell-based; conditions: etoposide-resistant line, concentration required to inhibit cell growth by 50%, four-fold serial dilution, replicate determinations on separate lines
Description: (§1) Representative compounds of the present invention were also evaluated in in vitro cytotoxicity assay against various murine and human tumor cell lines. The in vitro cytotoxicity assay involved growing various mammalian tumor cells, including human tumor cells, on microtitre plates employing established tissue culture methods. The concentration of each compound required to inhibit cell growth by 50% (IC50) was then determined by four-fold serial dilution technique. Tumor cells of the following types were employed for each compound tested: B16-F10 murine melanoma; Moser human colon; SW900 human lung; and two human colon tumor cell lines namely HCT-116, and HCT/VP35, the latter being resistant to etoposide (VP). […] The in vitro data may also be evaluated in terms of potency ratio which is defined as the ratio of IC50 against an etoposide-resistant cell-line to IC50 against an etoposide-sensitive cell-line.

[4] = system: HCT-116; test: in vitro cytotoxicity assay, HCT-116 human colon tumor; type: cell-based; conditions: concentration required to inhibit cell growth by 50%, four-fold serial dilution, replicate determinations on separate lines
Description: as §1

[5] = cited from earlier work
[6] = system: SW900 human lung; test: in vitro cytotoxicity assay, SW900 human lung; type: cell-based; conditions: concentration required to inhibit cell growth by 50%, four-fold serial dilution, replicate determinations on separate lines
Description: as §1

[7] = system: B16-F10 murine melanoma; test: in vitro cytotoxicity assay, B16-F10 murine melanoma; type: cell-based; conditions: concentration required to inhibit cell growth by 50%, four-fold serial dilution, replicate determinations on separate lines
Description: as §1

[8] = system: Moser human colon; test: in vitro cytotoxicity assay, Moser human colon; type: cell-based; conditions: concentration required to inhibit cell growth by 50%, four-fold serial dilution, replicate determinations on separate lines
Description: as §1

COc1cc([C@@H]2c3cc4c(cc3[C@@H](O[C@@H]3O[C@@H]5CO[C@@H](C)O[C@H]5[C@H](O)[C@H]3O)[C@H]3CNC(=O)[C@H]23)OCO4)cc(OC)c1OP(=O)(O)O [Example 15, 6H-Pyrrolo[3',4':6,7]naphtho[2,3-d]-1,3-dioxole-6-one, 5,5a,7,8,8a,9-hexahydro-9-[(4,6-O-ethylidene-β-Dglucopyranosyl)oxy]-5-[(3,5-dimethoxy-4-phosphonoxy)phenyl]-1, disodium salt, [5R-[5α,5aβ,8aα,9β(R*)]-]
max. % T/C ([1]; drug i.v. on days 5 and 8, 200 mg/kg/dose): 235 % T/C

CCNNC(=O)C1C(c2cc(OC)c(OC)c(OC)c2)c2cc3c(cc2C(O)C1CO)OCO3 (centres unmarked) [ethyl hydrazide of podophyllotoxin (V), ethyl hydrazide of podophyllotoxin]
antitumor activity in clinical trials [2]: minimal antitumor activity

COc1cc([C@@H]2c3cc4c(cc3[C@@H](O[C@@H]3O[C@@H]5CO[C@@H](C)O[C@H]5[C@H](O)[C@H]3O)[C@H]3COC(=O)[C@H]23)OCO4)cc(OC)c1O [etoposide, reference compound]
IC50 HCT/VP35 [3]: 122.79 mg/L and 184.01 mg/L and 98.33 mg/L and 142.90 mg/L and 79.06 mg/L and 48.22 mg/L | IC50 HCT/VP35 ([3]; listed as Etoposide): 16.31 mg/L and 18.74 mg/L and 140.63 mg/L | max. % T/C (positive control) ([1]; etoposide i.p., 125 mg/kg/dose): > 753 % T/C | IC50 HCT-116 [4]: 14.78 mg/L and 20.54 mg/L and 38.03 mg/L and 41.01 mg/L and 3.86 mg/L and 6.57 mg/L | IC50 HCT-116 ([4]; listed as Etoposide): 15.21 mg/L and 30.12 mg/L and 51.27 mg/L | in vivo metabolism [5]: extensively metabolized to the open ring hydroxy acid | IC50 SW900 [6]: 201.94 mg/L and 241.29 mg/L and 243.49 mg/L and > 500 mg/L and 77.80 mg/L and 54.59 mg/L | IC50 SW900 ([6]; listed as Etoposide): 213.23 mg/L and 241.88 mg/L | IC50 B16-F10 [7]: 16.75 mg/L and 19.47 mg/L and 27.72 mg/L and 30.38 mg/L and 9.96 mg/L and 5.80 mg/L | IC50 B16-F10 ([7]; listed as Etoposide): 19.36 mg/L and 51.93 mg/L and 62.19 mg/L | IC50 Moser [8]: 121.73 mg/L and 163.19 mg/L and 208.30 mg/L and 209.76 mg/L and 65.72 mg/L and 54.09 mg/L | IC50 Moser ([8]; listed as Etoposide): 94.51 mg/L and 97.83 mg/L and 116.41 mg/L
